Where two headings read alike, the source gives them in different places.
Target: BTK (Homo sapiens, UniProt Q06187)
Assay: biochemical
[1] = read-out: BTK inhibition (%), 0.75 uM BTK, […] probe 3l, 15 min preincubation

BTK, sequence (Q06187 402-655 limits assumed): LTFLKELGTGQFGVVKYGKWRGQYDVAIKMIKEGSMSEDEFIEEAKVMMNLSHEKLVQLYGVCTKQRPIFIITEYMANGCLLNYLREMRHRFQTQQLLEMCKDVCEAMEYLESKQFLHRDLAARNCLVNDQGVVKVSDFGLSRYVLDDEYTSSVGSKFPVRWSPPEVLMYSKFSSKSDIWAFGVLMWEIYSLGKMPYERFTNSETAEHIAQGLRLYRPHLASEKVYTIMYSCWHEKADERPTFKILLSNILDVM

| inhibition at 10 µM [1] | SMILES | inhibition at 10 µM (read-out: BTK inhibition (%)) |
| --- | --- | --- |
| 3.1% | CN1C(=O)[C@@H](NC(=O)c2cc(Cc3ccccc3)on2)COc2ccccc21 [PCM-0213452] | – |
| 7% | Cc1cc(C)c(Nc2ccnc(Nc3ccc(C#N)cc3)n2)c(C)c1 [PCM-0095398] | – |
| -1.5% | O=C(Nc1ccccc1-c1cn2c(CN3CC[C@@H](O)C3)csc2n1)c1ccc2ccccc2c1 [PCM-0215757] | – |
| -41.4% | O=C(O)CCc1ccc(NCc2cccc(Oc3ccccc3)c2)cc1 [PCM-0065313] | – |
| 17.1% | O=C(/C=C/c1ccc(O)cc1)c1ccc(O)cc1O [PCM-0065490] | – |
| 1.5% | O=C(NC[C@H](O)CN1CCc2ccccc2C1)c1cc(NC2COC2)ncn1 [PCM-0215447] | – |
| 8.6% | CC(C)OC(=O)C(C)(C)Oc1ccc(C(=O)c2ccc(Cl)cc2)cc1 [PCM-0065053] | – |
| 33.8% | COc1ccc2cc(-c3nc(-c4ccc([S+](C)[O-])cc4)[nH]c3-c3ccncc3)ccc2c1 (stereo not drawn) [PCM-0095143] | – |
| -8.5% | O=C1C[C@@H]2[C@@H](CO)[C@H](O)C[C@@H]2O1 [PCM-0216100] | – |
| 28.3% | Cc1ccc(-n2nc(C(C)(C)C)cc2NC(=O)NCc2cc(F)ccc2Oc2ccc3c(cnn3CCO)c2)cc1 [PCM-0215475] | – |
| -19.3% | COc1ccc2c(c1)c(CC(=O)OCC(=O)O)c(C)n2C(=O)c1ccc(Cl)cc1 [PCM-0085879] | – |
| -2.1% | C[C@@H](N)C1CCC(C(=O)Nc2ccncc2)CC1 (stereo partly drawn) [PCM-0094977] | – |
| -12.5% | C[C@H](Cc1cc2c(c(C(N)=O)c1)N(CCCO)CC2)NCCOc1ccccc1OCC(F)(F)F [PCM-0214784] | – |
| -13.2% | C=C[C@@H]1C[C@]1(NC(=O)[C@@H]1C[C@@H]2CN1C(=O)[C@H](C(C)(C)C)NC(=O)O[C@@H]1C[C@H]1CCCCCc1nc3ccc(OC)cc3nc1O2)C(=O)NS(=O)(=O)C1CC1 [PCM-0214895] | – |
| -33.5% | Cn1cc(-c2ccncc2)c(-c2ccc(OCc3ccc4ccccc4n3)cc2)n1 [PCM-0095695] | – |
| -5.4% | COC(=O)c1ccc(O)cc1 [PCM-0215083] | – |
| 3.9% | CC[C@H]1OC(=O)[C@H](C)[C@@H](O[C@H]2C[C@@](C)(OC)[C@@H](O)[C@H](C)O2)[C@H](C)[C@@H](O[C@@H]2O[C@H](C)C[C@H](N(C)C)[C@H]2O)[C@](C)(O)C[C@@H](C)/C(=N\OCOCCOC)[C@H](C)[C@@H](O)[C@]1(C)O [PCM-0214736] | – |
| 6.2% | NC(=O)c1ccc(OCCCN2CC3CCCC3C2)cc1 (stereo not drawn) [PCM-0215865] | – |
| 34.2% | Cn1cc(/C=C/C(=O)c2cccc(F)c2)cc1/C=C/C(=O)NO [PCM-0095164] | – |
| -9.3% | O=c1c(-c2ccc(O)cc2)coc2cc(O[C@@H]3O[C@H](CO)[C@@H](O)[C@H](O)[C@H]3O)cc(O)c12 [PCM-0214858] | – |
| 43.4% | Oc1cc(CNC(=S)/C=C/c2cc(O)c(O)c(Br)c2)cc(O)c1O [PCM-0215728] | – |
| 21.3% | NCC1OC(OC2C(N)CC(N)C(OC3OC(CO)C(O)C(N)C3O)C2O)C(N)CC1O (stereo not drawn) [PCM-0086125] | – |

| inhibition at 10 µM [1] | SMILES | inhibition at 10 µM (read-out: BTK inhibition (%)) |
| --- | --- | --- |
| 15.9% | CNC(=O)Nc1ccc(-c2nc(N3CC4CCC(C3)O4)c3cnn(C4CCC5(CC4)OCCO5)c3n2)cc1 [PCM-0095327] | – |
| 0% | COC(=O)/C=C/c1ccc(O)cc1 [PCM-0214996] | – |
| 6.2% | CC(C)(O)CC[C@@H](O)[C@](C)(O)[C@H]1CC[C@@]2(O)C3=CC(=O)[C@@H]4C[C@@H](O)[C@@H](O)C[C@]4(C)[C@H]3CC[C@]12C [PCM-0095305] | – |
| -11.7% | O=C(O)c1cc(=O)[nH]c(=O)[nH]1 [PCM-0090751] | – |
| -2.3% | CC(=O)Oc1cc2c(s1)CCN(C(C(=O)C1CC1)c1ccccc1F)C2 (stereo not drawn) [PCM-0095029] | – |
| 8.3% | CCN(CC)Cc1cc(Nc2ccnc3cc(Cl)ccc23)ccc1O [PCM-0085909] | – |
| 6.2% | C[C@H]1[C@H](C)CC[C@]2(C(=O)O)CC[C@]3(C)C(=CC[C@@H]4[C@@]5(C)C[C@@H](O)[C@H](O)C(C)(C)[C@@H]5CC[C@]43C)[C@H]12 [PCM-0216596] | – |
| 79.4% | O=c1cc(-c2ccccc2)oc2cc(O)c(O)c(O)c12 [PCM-0214670] | – |
| -39.7% | O=C(O)CCCCC(CCSCc1ccccc1)SCc1ccccc1 (stereo not drawn) [PCM-0095341] | – |
| -12.4% | Oc1cccc(O)c1O [PCM-0214990] | – |
| 4.1% | C[C@]12CC[C@@H]3c4ccc(O)cc4CC[C@H]3[C@@H]1CC[C@@H]2O [PCM-0214649] | – |
| 69.3% | Cc1cc(O)c2c(c1)C(=O)c1cc(O)cc(O)c1C2=O [PCM-0065315] | – |
| -8.3% | CCOC(=O)/C=C/c1ccc(O)c(OC)c1 [PCM-0215040] | – |
| -23.8% | COc1cc2c(cc1OC)C(=O)C(CC1CCN(Cc3ccccc3)CC1)C2 (stereo not drawn) [PCM-0090394] | – |
| 6.2% | C[C@H](CCC(=O)O)[C@H]1CC[C@H]2[C@@H]3[C@H](O)C[C@@H]4C[C@H](O)CC[C@]4(C)[C@H]3CC[C@]12C [PCM-0214654] | – |
| -2.3% | COC(=O)C1=C(C)NC(C)=C(C(=O)OC(C)C)C1c1cccc2nonc12 (stereo not drawn) [PCM-0086297] | – |
| -4.6% | O=C(CCN1CCN(C(=O)OCc2cc(Cl)cc(Cl)c2)CC1)c1ccc2[nH]c(=O)oc2c1 [PCM-0215647] | – |
| 28.6% | CC(=O)O/N=C1\C(=O)N(Cc2cc(Cl)ccc2Cl)c2ccc(Cl)cc21 [PCM-0095733] | – |
| -8.6% | CC(/C=C/C=C(\C)C(=O)O[C@@H]1O[C@H](CO[C@@H]2O[C@H](CO)[C@@H](O)[C@H](O)[C@H]2O)[C@@H](O)[C@H](O)[C@H]1O)=C\C=C\C=C(C)\C=C\C=C(/C)C(=O)O[C@@H]1O[C@H](CO[C@@H]2O[C@H](CO)[C@@H](O)[C@H](O)[C@H]2O)[C@@H](O)[C@H](O)[C@H]1O [PCM-0214941] | – |
| -9% | O=C(NCc1ccccc1)c1csc(Nc2ccncn2)n1 [PCM-0095135] | – |
| -0.9% | CC(C)(O)c1coc(S(=O)(=O)NC(=O)Nc2c3c(cc4c2CCC4)CCC3)c1 [PCM-0215611] | – |
| -30.3% | Cn1c(=O)c(Oc2ccc(F)cc2F)cc2cnc(NC(CCO)CCO)nc21 [PCM-0215718] | – |

| inhibition at 10 µM [1] | SMILES | inhibition at 10 µM (read-out: BTK inhibition (%)) |
| --- | --- | --- |
| – | CCOP(=O)(OCC)C(=Cc1cc(C(C)(C)C)c(O)c(C(C)(C)C)c1)P(=O)(OCC)OCC [PCM-0215676] | -11.6% |
| 11% | O=C1c2c(O)cc(O)cc2O[C@H](c2ccc(O)c(O)c2)[C@H]1O [PCM-0087882] | – |
| -3.1% | CC[C@H](C)C(=O)O[C@H]1C[C@H](O)C=C2C=C[C@H](C)[C@H](CC[C@@H](O)C[C@@H](O)CC(=O)O)[C@H]21 [PCM-0214717] | – |
| -5.4% | O=C1CC(c2c[nH]c3ccc(F)cc23)C(=O)N1 (stereo not drawn) [PCM-0215900] | – |
| 1.5% | CCC(CC)n1ccc2c(C(=O)NCc3c(C)cc(C)[nH]c3=O)cc(C#N)cc21 [PCM-0215402] | – |
| 75.9% | CCN(C)S(=O)(=O)Nc1ccc(F)c(C(=O)c2c[nH]c3ncc(-c4cnc(C5CC5)nc4)cc23)c1F [PCM-0215639] | – |
| -3.1% | O=C1OC(COc2ccccc2[N+](=O)[O-])CC1Cc1ccccc1 (stereo not drawn) [PCM-0215840] | – |
| 13.1% | CNC(=O)c1cc(Oc2ccc(NC(=O)Nc3ccc(Cl)c(C(F)(F)F)c3)c(F)c2)ccn1 [PCM-0095050] | – |
| 4.1% | COc1cc2ncnc(Oc3cccc(NC(=O)Nc4cc(C(C)(C)C(F)(F)F)on4)c3)c2cc1OC [PCM-0095605] | – |
| -16.2% | CC(C)CCNC(=O)[C@H](CC(C)C)NC(=O)[C@H]1O[C@@H]1C(=O)O [PCM-0215302] | – |
| -8.5% | C[N+](C)(C)NCCC(=O)[O-] [PCM-0215179] | – |
| -12.4% | O=c1cc(-c2cccc3c2Sc2ccccc2S3)oc(N2CCOCC2)c1 [PCM-0095067] | – |
| 84.8% | CN(C)C/C=C/C(=O)Nc1cc2c(Nc3ccc(F)c(Cl)c3)ncnc2cc1O[C@H]1CCOC1 [PCM-0094907] | – |
| -22.6% | C[C@@H]1C/C=C/C=C/C=C/C=C/[C@H](O[C@@H]2O[C@H](C)[C@@H](O)[C@H](N)[C@@H]2O)C[C@@H]2O[C@](O)(C[C@@H](O)C[C@H]3O[C@@H]3/C=C/C(=O)O1)C[C@H](O)[C@H]2C(=O)O [PCM-0214709] | – |
| -21.8% | Cc1cccc(C)c1OCC(=O)N[C@@H](Cc1ccccc1)[C@@H](O)C[C@H](Cc1ccccc1)NC(=O)[C@H](C(C)C)N1CCCNC1=O [PCM-0214618] | – |
| 0.8% | COc1ccc2cc1Oc1ccc(cc1)C[C@H]1c3cc(c(OC)cc3CCN1C)Oc1c(O)c(OC)cc3c1[C@@H](C2)N(C)CC3 [PCM-0214869] | – |
| 1.5% | Nc1ncnc2c1nc(Br)n2[C@@H]1O[C@@H]2COP(=O)(O)O[C@H]2[C@H]1O [PCM-0215506] | – |
| 2.3% | Cc1cc(C)nc(SCC(=O)Nc2ncc(Cc3cccc4ccccc34)s2)n1 [PCM-0215537] | – |
| -4.8% | C[C@]12CC[C@@H]3c4ccc(O)cc4CC[C@H]3[C@@H]1CCC2=O [PCM-0214644] | – |
| -6.2% | Nc1[nH]c(=O)ncc1F [PCM-0086523] | – |
| 13.1% | Cc1cc2c3c([n+](C)c4ccc(F)cc4c3c1)-c1cc(F)ccc1N2C [PCM-0215703] | – |

| SMILES | inhibition at 10 µM [1] | inhibition at 10 µM (read-out: BTK inhibition (%)) |
| --- | --- | --- |
| C[C@@H](N)C(=O)N[C@@H](CO)C(=O)N[C@H](C(=O)N[C@H](C(=O)N[C@H](C(=O)N[C@@H](CC(N)=O)C(=O)N[C@@H](Cc1ccc(O)cc1)C(=O)N[C@H](C(N)=O)[C@@H](C)O)[C@@H](C)O)[C@@H](C)O)[C@@H](C)O [PCM-0215819] | 11.1% | – |
| C1=Cc2ccccc2Nc2ccccc21 [PCM-0215149] | 4.7% | – |
| CC(C)(C)c1cc(C=C(C#N)C#N)cc(C(C)(C)C)c1O [PCM-0064935] | 15.2% | – |
| CN(C)CCN1C(=O)c2cccc3cc(N)cc(c23)C1=O [PCM-0095001] | 0.8% | – |
| CCCC(CCC)C(=O)OC1C[C@H]2CC[C@@H](C1)[N+]2(C)C (stereo partly drawn) [PCM-0215249] | -37.4% | – |
| CC(C)(O)[C@H]1CC[C@@](C)([C@H]2[C@@H](O)C[C@@]3(C)[C@@H]4C[C@H](O)[C@H]5C(C)(C)[C@@H](O)CC[C@@]56C[C@@]46CC[C@]23C)O1 [PCM-0215043] | -14.8% | – |
| COc1ccc2c(c1OC)CC1c3c(cc4c(c3-2)OCO4)CCN1C (stereo not drawn) [PCM-0216450] | 0.8% | – |

From article PMC8041284, “Tunable Methacrylamides for Covalent Ligand Directed Release Chemistry” (Journal of the American Chemical Society, 2021)
